The values that follow come from ChEMBL document CHEMBL5338722, “Optical-Controlled Kinetic Switch: Fine-Tuning of the Residence Time of an Antagonist Binding to the Vasopressin V2 Receptor in In Vitro, Ex Vivo, and In Vivo Models of ADPKD” (J Med Chem, 2023).

pKi: −log10 of the molar value. Calls of active or inactive are those of the source. No cut-off for these calls is given here.

The target in data set [1] is T1, Vasopressin V2 receptor (Homo sapiens, UniProt P30518). As to the kind of experiment: Displacement of conivaptan-red fluorescent probe from SNAP-tagged human vasopressin V2 receptor expressed in HEK293 cells compound pre-illuminated for 10 mins with light at 365 nm and further incubated for 1 hr by HTRF assay. The format is cell-based.
T1 sequence (P30518 whole entry): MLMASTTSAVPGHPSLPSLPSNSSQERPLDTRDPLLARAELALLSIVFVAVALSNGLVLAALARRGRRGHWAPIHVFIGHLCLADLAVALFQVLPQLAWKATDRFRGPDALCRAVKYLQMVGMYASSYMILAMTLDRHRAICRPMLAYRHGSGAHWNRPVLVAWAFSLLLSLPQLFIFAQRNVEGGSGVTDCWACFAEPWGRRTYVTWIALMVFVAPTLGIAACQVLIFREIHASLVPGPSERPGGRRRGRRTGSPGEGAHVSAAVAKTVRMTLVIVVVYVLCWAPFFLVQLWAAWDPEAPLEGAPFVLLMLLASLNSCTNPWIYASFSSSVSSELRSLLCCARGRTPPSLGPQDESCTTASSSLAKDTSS
In data set [2] the target is T1, Vasopressin V2 receptor. As to the kind of experiment: Displacement of conivaptan-red fluorescent probe from SNAP-tagged human vasopressin V2 receptor expressed in HEK293 cells compound pre-illuminated for 10 mins with light at 435 nm and further incubated for 1 hr by HTRF assay. The format is cell-based. Background: Time-resolved FRET reads energy transfer from a long-lived donor to a nearby acceptor.

In data set [3] the target is T1, Vasopressin V2 receptor. As to the kind of experiment: Displacement of conivaptan-red fluorescent probe from SNAP-tagged human vasopressin V2 receptor expressed in HEK293 cells at 10 uM compound pre-illuminated for 10 mins with light at 365 nm and further incubated for 1 hr by HTRF assay relative to control. The format is cell-based. As to conditions: filed as antagonist.

Data set [4] concerns the target T1, Vasopressin V2 receptor. As to the kind of experiment: Displacement of conivaptan-red fluorescent probe from SNAP-tagged human vasopressin V2 receptor expressed in HEK293 cells assessed as on-rate constant at IC50 by TR-FRET based competition association assay. The format is cell-based. As to conditions: filed as antagonist.
The target of data set [5] is T1, Vasopressin V2 receptor. As to the kind of experiment: Displacement of conivaptan-red fluorescent probe from SNAP-tagged human vasopressin V2 receptor expressed in HEK293 cells assessed as off-rate constant at IC50 by TR-FRET based competition association assay. The format is cell-based. As to conditions: filed as antagonist.
Data set [6] concerns the target T1, Vasopressin V2 receptor. As to the kind of experiment: Antagonist activity at human vasopressin V2 receptor expressed in CHO cells assessed as inhibition of vasopressin induced cAMP production at 10 times Ki preincubated for 30 mins followed by two consecutive washouts and irradiated with light at 435 nm during two washouts. The format is functional, cell-based. Background: cAMP levels reflect the balance of adenylyl cyclase and phosphodiesterase activity.

Data set [7] has as its target T1, Vasopressin V2 receptor. As to the kind of experiment: Displacement of conivaptan-red fluorescent probe from SNAP-tagged human vasopressin V2 receptor expressed in HEK293 cells assessed as residence time at IC50 by TR-FRET based competition association assay. The format is cell-based. As to conditions: filed as antagonist.
For data set [8], the target named is T1, Vasopressin V2 receptor. Kind of data set: Antagonist activity at human vasopressin V2 receptor expressed in CHO cells assessed as inhibition of vasopressin induced cAMP production at 10 times Ki preincubated for 30 mins followed by two consecutive washouts and irradiated with light at 365 nm during two washouts. The format is functional, cell-based.
A short description of data set [9]: Drug uptake in Sprague-Dawley rat kidney at 0.1 uM treated for 30 mins followed by extensive drug wash-out for 4 hrs by LC-MS analysis. The format is ADME, tissue-based. As to conditions: in vivo, 0.5 h.
The target in data set [10] is T1, Vasopressin V2 receptor. As to the kind of experiment: Displacement of conivaptan-red fluorescent probe from SNAP-tagged human vasopressin V2 receptor expressed in HEK293 cells assessed as on-rate constant at 0.1 uM compound pre-illuminated for 10 mins with light at 365 nm by dual-point competition association assay. The format is cell-based. As to conditions: filed as antagonist.

Data set [11] concerns the target Serine/threonine-protein kinase mTOR (Homo sapiens) (UniProt P42345). Kind of data set: Inhibition of mTOR (unknown origin) assessed as inhibition of p70S6K phosphorylation at 10 times Ki preincubated for 30 mins followed by two consecutive washouts and irradiated with light at 365 nm during two washouts by Western blot analysis. In general terms: Immunoblotting shows a protein as a band on a membrane.

Data set [12] deals with Mus musculus. Kind of data set: In vivo inhibition of renal cystogenesis in Pkd1 knock-out autosomal dominant polycystic kidney disease mouse model assessed as reduction in kidney size with fewer cysts at 5 mg/kg, sc administered once daily for 7 days compound pre-irradiated with light at 365 nm prior to administration by Hematoxylin-eosin staining based analysis. The format is functional, organism-based. As to conditions: time 7.0 day.

Data set [13] concerns Kidney. As to the kind of experiment: Ex vivo target occupancy at vasopressin V2 receptor in Sprague-Dawley rat kidney assessed as endurance in retention time by measuring half life at 0.1 uM treated for 30 mins followed by extensive drug wash-out for 240 mins by LC-MS analysis. The format is functional, tissue-based.
Data set [14] concerns Mus musculus. As to the kind of experiment: In vivo inhibition of renal cystogenesis in Pkd1 knock-out autosomal dominant polycystic kidney disease mouse model assessed as reduction in kidney size at 5 mg/kg, sc administered once daily for 7 days compound pre-irradiated with light at 365 nm prior to administration. The format is functional, organism-based. As to conditions: time 7.0 day.

Data set [15] addresses Serine/threonine-protein kinase mTOR (Homo sapiens) (UniProt P42345). As to the kind of experiment: Inhibition of mTOR (unknown origin) assessed as inhibition of p70S6K phosphorylation at 10 times Ki preincubated for 30 mins followed by two consecutive washouts and irradiated with light at 365 nm in first 30 mins of washout and with light at 435 nm in second 30 mins of washout by Western blot analysis.

The target of data set [16] is T1, Vasopressin V2 receptor. As to the kind of experiment: Antagonist activity at human vasopressin V2 receptor expressed in CHO cells assessed as inhibition of vasopressin induced cAMP production at 10 times Ki preincubated for 30 mins followed by two consecutive washouts and irradiated with light at 365 nm in first 30 mins of washout and with light at 435 nm in second 30 mins of washout. The format is functional, cell-based.

In data set [17] the target is Vasopressin V1a receptor (Homo sapiens) (UniProt P37288). As to the kind of experiment: Displacement of [3H]vasopressin from human V1A receptor expressed in CHO cell membranes at 1 uM compound pre-illuminated for 10 mins with light at 365 nm by radioligand displacement assay relative to control. As to conditions: Membrane.
Sequence of Vasopressin V1a receptor (Homo sapiens) (P37288 whole entry, looked up): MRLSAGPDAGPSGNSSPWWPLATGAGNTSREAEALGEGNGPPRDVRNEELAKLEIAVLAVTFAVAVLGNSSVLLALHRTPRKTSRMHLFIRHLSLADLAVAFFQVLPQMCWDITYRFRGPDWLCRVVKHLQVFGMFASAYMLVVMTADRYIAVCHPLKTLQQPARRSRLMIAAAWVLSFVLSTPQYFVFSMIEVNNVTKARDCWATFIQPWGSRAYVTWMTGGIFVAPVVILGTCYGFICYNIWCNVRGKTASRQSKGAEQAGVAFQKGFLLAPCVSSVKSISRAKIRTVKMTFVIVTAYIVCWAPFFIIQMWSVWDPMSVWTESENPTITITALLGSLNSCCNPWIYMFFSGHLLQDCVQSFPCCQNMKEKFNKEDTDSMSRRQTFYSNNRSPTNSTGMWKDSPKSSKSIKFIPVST
Data set [18] has as its target T1, Vasopressin V2 receptor. Kind of data set: Antagonist activity at human vasopressin V2 receptor expressed in CHO cells assessed as inhibition of AVP-induced cAMP production at 1 uM preincubated for 30 mins followed by two consecutive washouts and irradiated with light at 365 nm during two washouts. The format is functional, cell-based. As to conditions: filed as antagonist.

A short description of data set [19]: In vivo inhibition of renal cystogenesis in Pkd1 knock-out autosomal dominant polycystic kidney disease mouse model assessed as disease progression at 5 mg/kg, sc administered once daily for 7 days compound pre-irradiated with light at 365 nm prior to administration. The format is functional. Also on record: scale not given: the % may be the effect or the level left. As to conditions: time 7 day.

Data set [20] addresses T1, Vasopressin V2 receptor. Kind of data set: Displacement of conivaptan-red fluorescent probe from SNAP-tagged human vasopressin V2 receptor expressed in HEK293 cells assessed as kinetic rate index by measuring ratio of binding of labeled probe at 15 mins to 60 mins at IC50 compound pre-illuminated for 10 mins with light at 365 nm by dual-point competition association assay. As to conditions: filed as antagonist. The format is cell-based.

The target in data set [21] is Serine/threonine-protein kinase mTOR (Homo sapiens) (UniProt P42345). Kind of data set: Inhibition of mTOR (unknown origin) assessed as inhibition of p70S6K phosphorylation at 10 times Ki preincubated for 30 mins followed by two consecutive washouts and irradiated with light at 435 nm during two washouts by Western blot analysis.
Data set [22] deals with Mus musculus. As to the kind of experiment: In vivo inhibition of renal cystogenesis in Pkd1 knock-out autosomal dominant polycystic kidney disease mouse model assessed as reduction in cysts area at 5 mg/kg, sc administered once daily for 7 days compound pre-irradiated with light at 365 nm prior to administration by Hematoxylin-eosin staining based analysis. The format is functional, organism-based. As to conditions: time 7.0 day.

The target in data set [23] is T1, Vasopressin V2 receptor. As to the kind of experiment: Displacement of conivaptan-red fluorescent probe from SNAP-tagged human vasopressin V2 receptor expressed in HEK293 cells assessed as residence time at 0.1 uM compound pre-illuminated for 10 mins with light at 365 nm by dual-point competition association assay. The format is cell-based. As to conditions: filed as antagonist.

Data set [24] deals with Serine/threonine-protein kinase mTOR (Homo sapiens) (UniProt P42345). Kind of data set: Inhibition of mTOR (unknown origin) assessed as inhibition of p70S6K phosphorylation at 10 times Ki preincubated for 30 mins followed by two consecutive washouts and irradiated with light at 435 nm in first 30 mins of washout and with light at 365 nm in second 30 mins of washout by Western blot analysis.

Data set [25] addresses T1, Vasopressin V2 receptor. Kind of data set: Antagonist activity at human vasopressin V2 receptor expressed in CHO cells assessed as inhibition of vasopressin-induced cAMP production at 10 times Ki preincubated for 30 mins followed by two consecutive washouts and irradiated with light at 435 nm in first 30 mins of washout and with light at 365 nm in second 30 mins of washout. The format is functional, cell-based. As to conditions: filed as antagonist.

In data set [26] the test system is Kidney. As to the kind of experiment: Ex vivo inhibition of renal cystogenesis in ADPKD C57BL/6 mouse kidney assessed as suppression of 8-Br-cAMP-induced cyst development at 10 uM measured after 4 days in presence of 8-Br-cAMP by inverted microscopic analysis. The format is functional, tissue-based. As to conditions: time 4.0 day.
Data set [27] has as its target T1, Vasopressin V2 receptor. As to the kind of experiment: Displacement of conivaptan-red fluorescent probe from SNAP-tagged human vasopressin V2 receptor expressed in HEK293 cells assessed as leftward shift in competition curve at 0.1 uM compound pre-illuminated for 10 mins with light at 365 nm and measured for 10 to 60 mins by dual-point competition association assay. As to conditions: filed as antagonist, time 10-60 min. The format is cell-based.

The target of data set [28] is T1, Vasopressin V2 receptor. As to the kind of experiment: Displacement of conivaptan-red fluorescent probe from SNAP-tagged human vasopressin V2 receptor expressed in HEK293 cells assessed as off-rate constant at 0.1 uM compound pre-illuminated for 10 mins with light at 365 nm by dual-point competition association assay. The format is cell-based. As to conditions: filed as antagonist.

Data set [29] has as its target T1, Vasopressin V2 receptor. As to the kind of experiment: Antagonist activity at human vasopressin V2 receptor expressed in CHO cells assessed as inhibition of cAMP production. The format is functional, cell-based. As to conditions: filed as antagonist.
In data set [30] the target is T1, Vasopressin V2 receptor. As to the kind of experiment: Displacement of conivaptan-red fluorescent probe from SNAP-tagged human vasopressin V2 receptor expressed in HEK293 cells at 10 uM compound pre-illuminated for 10 mins with light at 435 nm and further incubated for 1 hr by HTRF assay relative to control. The format is cell-based.

On to `Cc1cccc(/N=N\c2ccc(C(=O)N3Cc4cccn4Cc4ccccc43)c(Cl)c2)c1`, for which, in data set [1], the pKi (commonly the negative decadic logarithm of the Ki, by convention in mol/L) was 6.87.
For the compound `O=C(c1ccc(/N=N/c2ccc(F)cc2)cc1Cl)N1Cc2cccn2Cc2ccccc21`, in data set [2], the pKi is 6.07.
As for `O=C(c1ccc(/N=N\c2ccccc2)cc1Cl)N1Cc2cccn2Cc2ccccc21`, the pKi in [1] is 7.03.
Regarding `O=C(c1ccc(/N=N\c2ccc(-c3ccccc3)cc2)cc1Cl)N1Cc2cccn2Cc2ccccc21`, in [3], the inhibition (in general, how much of the control response was suppressed) was 51%.
Take `Cc1ccc(F)cc1/N=N/c1ccc(C(=O)N2Cc3cccn3Cc3ccccc32)c(Cl)c1`: in [2], the pKi was 6.24.
`Cc1ccccc1/N=N\c1ccc(C(=O)N2Cc3cccn3Cc3ccccc32)c(Cl)c1` showed a pKi in data set [1] of 5.91.
`O=C(c1ccc(/N=N\c2ccc(F)cc2)cc1Cl)N1Cc2cccn2Cc2ccccc21` gave a pKi in data set [1] of 6.54.
For the compound `Cc1ccc(F)cc1C(=O)Nc1ccc(C(=O)N2Cc3cccn3Cc3ccccc32)c(Cl)c1`, the K in data set [4] is 4.6 10^7/M/min; in [5], 0.06 min⁻¹. Besides, the inhibition result in data set [6] and in data set [8] was “inactive” each time. Besides, the TIME in data set [7] stood at 0.3 h.
Take `O=C(c1ccc(/N=N\c2ccc(C(F)(F)F)cc2)cc1Cl)N1Cc2cccn2Cc2ccccc21`: the pKi in [1] was 5.28.
Turning to `Cc1ccc(/N=N\c2ccc(C(=O)N3Cc4cccn4Cc4ccccc43)c(Cl)c2)cc1`, the Drug uptake in data set [9] was determined as 26 nM. The values for the K in data set [10] and in [28] were 6.6 10^5/M/min and 0.017 min⁻¹, respectively. Also, the inhibition result in data set [11], in data set [12], in data set [14], in data set [18], in data set [22] and in data set [25] was “Active” throughout. Further, the inhibition result in data set [26], in data set [8] (filed as antagonist) and in [29] was “Active” in each case. Besides, in data set [13], the T1/2 was 1.82 h. The inhibition entry in [6], in data set [15], in data set [16], in data set [21] and in data set [24] was “inactive” throughout. Further, the inhibition in data set [17] is under 40%. Also, the Activity in data set [19] is 14.6%. In addition, the Ratio in [20] amounted to 1.72. In data set [23], the TIME is 1.07 h. The same compound showed a pKi in data set [1] of 7.40. The outcome in [27] was Active.
The compound `O=C(c1ccc(/N=N/c2ccc(-c3ccccc3)cc2)cc1Cl)N1Cc2cccn2Cc2ccccc21` had an inhibition in data set [30] of 33%.
